“Also recorded” adds a separate entry of the source. Structures can show the parent of a compound that is named as a salt. Where two headings read alike, the source gives them in different places.
Tests used:
[1] = system: metabolically-resistant Hikone-R strain of Drosophila (elevated cytochrome P450); type: in vivo; details: for response of Hikone-R relative to Canton-S (LC50 ratio Hikone÷Canton, FIG. 5), in words: significance at p<0.05, method of Robertson and Preisler
Method: (§1) Four Drosophila strains were used, all obtained from the Bloomington Drosophila Stock Center (Indiana University; Bloomington, Ind.). The Canton-S strain was used as the insecticide-susceptible standard. […] Two resistant neurological-mutant strains were also tested. […] Flies were reared in 100-ml vials capped with acetate plugs (Fisher Scientific; Suwanee, Ga.) on a commercial diet (JAZZ-MIX; Fisher Scientific). […] Mixed-sex adults, less than 1-wk old, were used in bioassays.
(§2) All volatile insecticide stocks were prepared at 100 μg/μl in analytical grade acetone. Rather than weigh the highly volatile liquid insecticides (i.e., all compounds except benzothiophene), weight was determined based on the density-volume relationship of each compound. […] The insecticide synergists PBO (piperonyl butoxide) and DEF (SSS-tributyl-phosphoro-trithioate) were obtained from Fluka Chemical Co. (Basel, Switzerland) and Mobay Chemical Co. (Kansas City, Mo.). […] Synergist stocks were prepared at 100 μg/ml in analytical grade acetone.
(§3) Briefly, bioassays took place in 0.5-l glass jars with metal lids. Mixed-sex flies were isolated from lab colonies and placed in 4-ml dram vials in groups of ten, along with a dried piece of laboratory diet. The dram vials were capped with open-top septum caps that were covered with fine mesh (held in place by non-toxic glue). For bioassays, the assembled dram vials were placed into the 0.5-l jars along with a folded filter paper “tent” (Whatman #1; Vineland, N.J.). The filter paper was treated with either an insecticide dilution or acetone, the jar was sealed with the metal lid, and the bioassay proceeded for 24-hr at room temperature. Mortality was scored based on a complete lack of movement by the flies. Four concentrations plus an acetone control were tested for all insecticides. Between five and ten replicates were performed for each concentration range on each strain-insecticide combination. Synergist bioassays were performed with a slight modification. Synergist stocks were applied to dram vials at 100 μl per vial to provide assay concentrations of 10 μg per vial. […] After treatment, vials were held at an angle in a fume hood and rotated ¼-turn each minute until the acetone evaporated. Flies and diet were added as above and held for 1-hr. Assays were initiated, run, and scored as above.
(§4) Probit analysis was performed using PROC PROBIT in the SAS software package (SAS Institute; Cary, N.C.). If control mortality ever exceeded 10% in a given replicate, that replicate was discarded.

[2] = system: para-ts1 (para-R) strain of Drosophila (sodium channel point mutation); type: in vivo; details: significance at p<0.05, method of Robertson and Preisler
Method: as §1, §2, §3, §4

[3] = system: Rd1 (Rdl-R) strain of Drosophila (GABA-gated chloride channel point mutation); type: in vivo, Drosophila melanogaster
From the text: (§5) Four Drosophila strains were used, all obtained from the Bloomington Drosophila Stock Center (Indiana University; Bloomington, Ind.). The Canton-S strain was used as the insecticide-susceptible standard. The Hikone-R strain is metabolically-resistant with elevated cytochrome P450 levels (Waters et al., 1984; Sundseth et al., 1989; Le Goff et al., 2003; Festucci-Buselli et al., 2005). Hikone-R is resistant to a number of insecticides, including malathion, DDT and neonicotinoids (Sundseth et al., 1989; Daborn et al., 2001). Two resistant neurological-mutant strains were also tested. […] Flies were reared in 100-ml vials capped with acetate plugs (Fisher Scientific; Suwanee, Ga.) on a commercial diet (JAZZ-MIX; Fisher Scientific). Flies were reared on a 12:12 photocycle at 24° C. and 60% relative humidity. Mixed-sex adults, less than 1-wk old, were used in bioassays.
(§6) All experimental materials were purchased from Sigma-Aldrich-Fluka (Milwaukee, Wis.) and were of 99% purity or greater. […] All volatile insecticide stocks were prepared at 100 μg/μl in analytical grade acetone. Rather than weigh the highly volatile liquid insecticides (i.e., all compounds except benzothiophene), weight was determined based on the density-volume relationship of each compound. Four serial dilutions were prepared and tested for each insecticide as described previously (Scharf et al., 2006). The insecticide synergists PBO (piperonyl butoxide) and DEF (SSS-tributyl-phosphoro-trithioate) were obtained from Fluka Chemical Co. (Basel, Switzerland) and Mobay Chemical Co. (Kansas City, Mo.). Both synergists were >95% purity. Synergist stocks were prepared at 100 μg/ml in analytical grade acetone.
(§7) Volatility bioassays were conducted exactly as described in a previous report (Scharf et al., 2006). Briefly, bioassays took place in 0.5-l glass jars with metal lids. Mixed-sex flies were isolated from lab colonies and placed in 4-ml dram vials in groups of ten, along with a dried piece of laboratory diet. The dram vials were capped with open-top septum caps that were covered with fine mesh (held in place by non-toxic glue). For bioassays, the assembled dram vials were placed into the 0.5-l jars along with a folded filter paper “tent” (Whatman #1; Vineland, N.J.). The filter paper was treated with either an insecticide dilution or acetone, the jar was sealed with the metal lid, and the bioassay proceeded for 24-hr at room temperature. Mortality was scored based on a complete lack of movement by the flies. Four concentrations plus an acetone control were tested for all insecticides. Between five and ten replicates were performed for each concentration range on each strain-insecticide combination. Synergist bioassays were performed with a slight modification. Synergist stocks were applied to dram vials at 100 μl per vial to provide assay concentrations of 10 μg per vial. […] After treatment, vials were held at an angle in a fume hood and rotated ¼-turn each minute until the acetone evaporated. Flies and diet were added as above and held for 1-hr. Assays were initiated, run, and scored as above.
(§8) Probit analysis was performed using PROC PROBIT in the SAS software package (SAS Institute; Cary, N.C.). If control mortality ever exceeded 10% in a given replicate, that replicate was discarded. Toxicity and synergist ratios at LC50 were compared statistically using the calculation described by Robertson and Preisler (1992). Using this procedure, ratios with 95% confidence intervals were calculated using a spreadsheet-based program. With this calculation, if confidence intervals include 1.0 then ratios are considered non-significant (p>0.05; Robertson and Preisler, 1992).

[4] = system: metabolically resistant Hikone-R strain of Drosophila; type: in vivo; details: Hikone, FIG. 6
Method: as §6, §7, §8

[5] = system: insecticide-susceptible Canton-S strain of Drosophila; type: in vivo
Method: as §6, §7, §8

[6] = system: insecticide-susceptible Drosophila melanogaster (Canton-S strain); type: in vivo; details: in vivo
Method: The insecticide-susceptible Canton-S strain of Drosophila was obtained from the Bloomington Drosophila stock center (Indiana University, Bloomington, Ind.), and used exclusively in all studies. Flies were reared in 100-ml vials capped with acetate plugs (Fisher Scientific; Suwannee, Ga.) on a JAZZ-MIX diet (Fisher) prepared with a 2:1 ratio of water to apple juice. Flies were reared on a 12:12 photocycle at 24° C. and ambient relative humidity. Mixed-sex adults, less than 1-wk old, were used in bioassays.
Flies were briefly anesthetized in rearing vials with a pulse of CO2 and transferred to a CO2 flowbed (Genesee Scientific; San Diego, Calif.). Using a camel hair brush and a 5×5 cm sheet of rice paper, ten flies were placed into 7.0 ml dram vials. Prior to adding flies, each vial received a 0.5 cm^3 block of rearing diet that had been sufficiently dried on a paper towel to remove excessive moisture. The vials were then capped with open-top septum caps (Fisher) that were covered with fine mesh. The mesh was applied to the septum caps in advance using hot glue; it prevented fly escape but readily permitted gas exchange. The flies were allowed 1-hr to recover from the CO2 anesthesia. After one hour, single vials with flies were placed into 0.5 L glass jars, along with a filter paper tent (see FIG. 1). In a fume hood, filter paper tents were treated with insecticide dilutions or acetone for controls. The jars were then rapidly closed tightly with a metal lid. After 24 hours of exposure, mortality was scored with the aid of a magnifying glass.
All test compounds and solvents were >99% purity, and were purchased from Sigma-Aldrich Chemical (Milwaukee, Wis.). See Table 1 for a listing of the test compounds and their structures. Insecticide stock solutions were prepared at a standard concentration of 100 μg/μl in analytical grade acetone. For liquid insecticidal compounds, density in mg/μl was used to calculate weight on a per-volume basis. Stock solutions were held at −20° C. in sealed amber vials. In bioassay jars, filter paper tents were treated with stock volumes ranging from 2 to 20 μl, depending on the inherent toxicity of the test compound. These volumes of insecticide stock provided test concentrations of 200 to 2000 μg insecticide per replicate jar. A range of 4-5 concentrations plus a control were tested for each insecticide, and each range was repeated five times over at least three days. Controls received a volume of acetone identical to the highest insecticide volume that was tested (i.e., 10 μl for menthofuran; 20 μl for all other insecticides). Between uses, bioassay jars and lids were washed in a dishwasher, then baked 12-16 hr at 90° C. in a drying oven.
Probit and regression analyses were performed using the PROC PROBIT and PROC REG procedures, respectively. […] If control mortality ever exceeded 10% in a given replicate, that replicate was discarded.
as §5

[7] = Table 3, Hikone-R, no synergist, 24 hr

| SMILES | Slope ± Std. Error (probit mortality line) ([1]; Table 2, Hikone-R, 24 hr) | Slope ± Std. Error (probit mortality line) [1, 7] | response of Hikone-R relative to Canton-S (LC50 ratio Hikone÷Canton, FIG. 5), in words [1] | response of para-ts1 relative to Canton-S (LC50 ratio, FIG. 7B), in words [2] | response of Rd1 relative to Canton-S (LC50 ratio, FIG. 7A), in words ([3]; in vivo) | LC50 ([1]; in vivo) | Slope ± Std. Error (probit mortality line) ([1]; in vivo) | LC50 ([3]; in vivo) | response of Rd1 relative to Canton-S (LC50 ratio, FIG. 7A), in words ([3]; significance at p<0.05, method of Robertson and Preisler) | response of Hikone-R relative to Canton-S (LC50 ratio Hikone÷Canton, FIG. 5), in words ([1]; listed as mentho-) | response of Hikone-R relative to Canton-S (LC50 ratio Hikone÷Canton, FIG. 5), in words ([1]; listed as menthofuran) | effect of PBO treatment on toxicity, in words [4] | efficacy level when mixed with the P450 inhibitor PBO ([5]; 'levels on the same scale' as MITC and DDVP) [µg/L] | effect of PBO treatment on toxicity, in words ([5]; Canton-S, FIG. 6) | LC50 (95% CL) [6] |
| --- | --- | --- | --- | --- | --- | --- | --- | --- | --- | --- | --- | --- | --- | --- | --- |
| c1ccc2sccc2c1 [Benzothiophene, benzothiophene] | 4.42 ± 0.46 | 4.42 ± 0.46 | significantly enhanced susceptibility; also recorded: greater susceptibility | enhanced susceptibility | significantly enhanced susceptibility |  |  |  |  |  |  |  |  |  |  |
| CCCCOC=O [Butyl Formate, butyl formate] |  |  |  | non-significant tolerance |  | 1570.0 μg insecticide per 0.5 liter of headspace | 8.82 ± 2.00 | 1246.0 μg insecticide per 0.5 liter of headspace | non-significant tolerance |  |  |  |  |  |  |
| CCCCCCOC=O [Hexyl Formate, hexyl formate] | 3.26 ± 0.65 | 3.26 ± 0.65 | non-significant tolerance | non-significant tolerance | non-significant tolerance |  |  |  |  |  |  |  |  |  |  |
| Cc1coc2c1CC[C@H](C)C2 [Menthofuran, menthofuran] | 4.12 ± 0.45 | 4.12 ± 0.45 |  | enhanced susceptibility | significantly enhanced susceptibility |  |  |  |  | significantly enhanced susceptibility | significantly more susceptible; also recorded: greater susceptibility; also recorded: enhanced susceptibility | no effects | < 100 | increased menthofuran toxicity |  |
| CCCOC=O [Propyl Formate, propyl formate] | 7.43 ± 1.26 | 7.43 ± 1.26 |  | non-significant tolerance | significant resistance |  |  |  |  |  |  |  |  |  | 1833.0 (1787.0 − 1884.0) μg/jar |
| CC(C)(C)OC=O [t-Butyl Formate, tert-butyl formate] | 44.70 | 44.70 | non-significant tolerance | elevated tolerance; also recorded: significant tolerance | significant resistance; also recorded: significant tolerance |  |  |  |  |  |  |  |  |  | 1981.0 (1917.0 − 2048.4) μg/jar |

Reference: patent US20070154393A1, “Bioassay for volatile low molecular weight insecticides and methods of use” (priority 2005, published 2007)
